Reference: ChEMBL document CHEMBL1137453, “Structure-activity relationship and biological property of cortistatins, anti-angiogenic spongean steroidal alkaloids” (Bioorg Med Chem, 2007)

Legend:
K562 = assay: Antiproliferative activity against human K562 cells by WST-8 colorimetric assay; assay type: functional, cell-based
[1] = Antiproliferative activity against mouse Neuro-2A cells by WST-8 colorimetric assay; assay type: functional, cell-based; conditions: N2a
[2] = Antiproliferative activity against human KB3-1 cells by WST-8 colorimetric assay; assay type: functional, cell-based; conditions: KB 3-1
HUVEC = assay: Antiproliferative activity against HUVEC cells by WST-8 colorimetric assay; assay type: cell-based; conditions: Homo sapiens
NHDF = assay: Antiproliferative activity against NHDF cells by WST-8 colorimetric assay; assay type: functional, cell-based; conditions: Homo sapiens

With `CN(C)[C@H]1C[C@@]23CC[C@@]4(O2)C(=CC[C@@]2(C)[C@H]4CC(=O)[C@]2(O)c2ccc4ccncc4c2)C=C3[C@@H](O)[C@@H]1O` the IC50 (K562) was > 300 µM, the IC50 [1] was > 300 µM and the IC50 [2] was 55 µM. The IC50 (HUVEC) was 150 nM and the IC50 (NHDF) was > 300000 nM.

With `CN(C)[C@H]1C[C@@]23CC[C@@]4(O2)C(=CC[C@@]2(C)[C@H]4C[C@H](O)[C@@H]2c2ccc4ccncc4c2)C=C3[C@@H](O)[C@@H]1O` the IC50 (K562) was 200 µM, the IC50 [1] was 160 µM and the IC50 [2] was 120 µM. For the same compound, the IC50 (HUVEC) was 1100 nM and the IC50 (NHDF) was > 300000 nM.

With `CC1CN(C)CCC1CCC(C)[C@H]1CC[C@@H]2[C@]1(C)CCC1=CC3=CC[C@@H](N(C)C)C[C@]34CC[C@@]12O4` (stereo not given in full) [CORTISTATIN E] the IC50 (K562) was 2.8 µM, the IC50 [1] was 1.9 µM and the IC50 [2] was 2.5 µM. For the same compound, the IC50 (HUVEC) was 450 nM and the IC50 (NHDF) was 1900 nM.

With `CC1CN(C)CCC1CCC(C)[C@H]1CC[C@@H]2[C@]1(C)CC=C1C=C3C=C[C@@H](N(C)C)C[C@]34CC[C@@]12O4` (stereo not given in full) [CORTISTATIN F] the IC50 (K562) was 4 µM, the IC50 [1] was 4 µM and the IC50 [2] was 10.8 µM. For the same compound, the IC50 (HUVEC) was 1900 nM and the IC50 (NHDF) was 4100 nM.

Work on `Cc1cnccc1/C=C/C(C)[C@H]1CC[C@@H]2[C@]1(C)CCC1=CC3=CC[C@@H](N(C)C)C[C@]34CC[C@@]12O4` (stereo not given in full) [CORTISTATIN G] yielded an IC50 (K562) of 3.8 µM, an IC50 [1] of 4 µM and an IC50 [2] of 8.9 µM. It also gave an IC50 (HUVEC) of 800 nM and an IC50 (NHDF) of 2900 nM.

With `Cc1cnccc1CCC(C)[C@H]1CC[C@@H]2[C@]1(C)CCC1=CC3=CC[C@@H](N(C)C)C[C@]34CC[C@@]12O4` (stereo not given in full) [CORTISTATIN H] the IC50 (K562) was 2.7 µM, the IC50 [1] was 2.2 µM and the IC50 [2] was 2.3 µM. For the same compound, the IC50 (HUVEC) was 350 nM and the IC50 (NHDF) was 2700 nM.

For `CN(C)[C@@H]1C=CC2=CC3=CC[C@]4(C)[C@@H](c5ccc6ccncc6c5)CC[C@H]4[C@@]34CC[C@]2(C1)O4` [CORTISTATIN J], the IC50 (K562) was 3.3 µM, the IC50 [1] was 3.3 µM and the IC50 [2] was 9.1 µM. For the same compound, the IC50 (HUVEC) was 8 nM and the IC50 (NHDF) was 2400 nM.

For `CN(C)[C@@H]1CC=C2C=C3CC[C@]4(C)[C@@H](c5ccc6ccncc6c5)CC[C@H]4[C@@]34CC[C@]2(C1)O4` [CORTISTATIN K], the IC50 (K562) was 3.9 µM, the IC50 [1] was 3 µM and the IC50 [2] was 10.2 µM. The IC50 (HUVEC) was 40 nM and the IC50 (NHDF) was 2500 nM.

In the case of `CN(C)[C@H]1C[C@@]23CC[C@@]4(O2)C(=CC3=C[C@@H]1O)CC[C@]1(C)[C@@H](c2ccc3ccncc3c2)CC[C@H]14` [CORTISTATIN L], the IC50 (K562) is reported as 4.3 µM, the IC50 [1] is reported as 2.8 µM and the IC50 [2] is reported as 14 µM. For the same compound, the IC50 (HUVEC) was 23 nM and the IC50 (NHDF) was 2400 nM.
